# Source: patent US20090264384A1, “INDOLE, BENZIMIDAZOLE, AND BENZOLACTAM BORONIC ACID COMPOUNDS, ANALOGS THEREOF AND METHODS OF USE THEREOF” (Nuada, Inc., priority 2004, published 2009)
# Assays:
# V2(h) = target: T1, V2(h) (Homo sapiens, UniProt P30518); assay: V2(h) binding assay; conditions: 1.0E−05 M; read-out: % Inhibition of Control Specific Binding
# T1 construct: expressed in transfected cells; host or cells: CHO cells
# Androgen(h) (AR) = target: T2, Androgen(h) (AR) (Homo sapiens, UniProt P10275, T878A); assay: Androgen(h) (AR) binding assay; conditions: 1.0E−05 M; read-out: % Inhibition of Control Specific Binding
# T2 construct: LNCaP cells; endogenous in cells; host or cells: LNCaP cells (cytosol)
# T2 sequence (P10275 whole entry T878A): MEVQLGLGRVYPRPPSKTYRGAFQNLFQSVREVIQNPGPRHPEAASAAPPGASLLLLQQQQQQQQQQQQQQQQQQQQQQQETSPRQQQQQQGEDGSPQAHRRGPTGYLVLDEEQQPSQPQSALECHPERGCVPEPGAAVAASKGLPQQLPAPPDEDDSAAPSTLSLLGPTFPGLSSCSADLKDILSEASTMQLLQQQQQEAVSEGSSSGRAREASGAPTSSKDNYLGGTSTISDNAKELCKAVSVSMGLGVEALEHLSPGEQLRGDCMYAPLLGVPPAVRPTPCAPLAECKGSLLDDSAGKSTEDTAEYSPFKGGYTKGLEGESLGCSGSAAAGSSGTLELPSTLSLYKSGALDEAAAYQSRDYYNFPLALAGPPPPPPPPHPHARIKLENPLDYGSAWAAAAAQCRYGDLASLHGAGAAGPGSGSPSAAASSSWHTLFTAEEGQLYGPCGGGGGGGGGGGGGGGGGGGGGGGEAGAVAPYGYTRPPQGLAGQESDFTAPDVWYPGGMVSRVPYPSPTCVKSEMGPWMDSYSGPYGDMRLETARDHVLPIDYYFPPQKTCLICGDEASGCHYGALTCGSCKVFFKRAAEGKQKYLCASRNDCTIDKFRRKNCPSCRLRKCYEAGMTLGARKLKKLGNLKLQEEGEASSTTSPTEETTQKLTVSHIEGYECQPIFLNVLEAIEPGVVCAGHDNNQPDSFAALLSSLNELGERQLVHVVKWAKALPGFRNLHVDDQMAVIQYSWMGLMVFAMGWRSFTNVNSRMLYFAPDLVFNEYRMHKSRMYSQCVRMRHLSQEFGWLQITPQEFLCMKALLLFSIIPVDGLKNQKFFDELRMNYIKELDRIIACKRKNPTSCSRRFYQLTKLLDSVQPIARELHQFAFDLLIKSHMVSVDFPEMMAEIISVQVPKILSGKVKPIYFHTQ
# D4.4(h) = D4.4(h) (Homo sapiens, UniProt P21917); assay: biochemical; conditions: 1.0E−05 M; read-out: % Inhibition of Control Specific Binding
# D4.4(h), sequence (P21917 whole entry): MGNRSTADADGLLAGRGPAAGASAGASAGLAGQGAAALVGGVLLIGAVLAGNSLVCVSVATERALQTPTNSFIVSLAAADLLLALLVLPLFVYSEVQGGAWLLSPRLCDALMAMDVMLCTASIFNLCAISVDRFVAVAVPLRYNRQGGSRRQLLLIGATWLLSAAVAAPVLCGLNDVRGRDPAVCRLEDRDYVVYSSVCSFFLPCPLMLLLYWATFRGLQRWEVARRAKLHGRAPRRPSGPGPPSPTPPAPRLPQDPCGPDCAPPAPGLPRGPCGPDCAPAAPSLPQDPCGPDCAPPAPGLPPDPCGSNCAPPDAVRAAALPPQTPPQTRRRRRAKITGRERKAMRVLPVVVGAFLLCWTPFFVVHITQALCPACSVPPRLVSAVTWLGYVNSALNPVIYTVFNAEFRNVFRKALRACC
# H2(h) = target: T3, H2(h) (Homo sapiens, UniProt P25021); assay: H2(h) binding assay; conditions: read-out: % Inhibition of Control Specific Binding
# T3 construct: expressed in transfected cells; host or cells: CHO cells
# T3 sequence (P25021 whole entry): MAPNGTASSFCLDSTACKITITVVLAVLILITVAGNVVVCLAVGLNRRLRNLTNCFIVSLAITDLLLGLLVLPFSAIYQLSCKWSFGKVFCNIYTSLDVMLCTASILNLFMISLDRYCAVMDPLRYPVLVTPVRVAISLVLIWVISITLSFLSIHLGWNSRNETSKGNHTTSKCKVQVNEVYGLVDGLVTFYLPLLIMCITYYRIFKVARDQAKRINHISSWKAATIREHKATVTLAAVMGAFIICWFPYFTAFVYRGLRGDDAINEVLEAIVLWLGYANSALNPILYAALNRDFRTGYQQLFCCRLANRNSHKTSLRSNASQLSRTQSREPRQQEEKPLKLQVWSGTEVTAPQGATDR
# Y (non-selective) = Y (non-selective) binding assay; parameters: species or system rat; conditions: 1.0E−05 M
# AT1(h) = target: T4, AT1(h) (Homo sapiens, UniProt P30556); assay: AT1(h) binding assay; conditions: read-out: % Inhibition of Control Specific Binding
# T4 construct: expressed in transfected cells; host or cells: CHO cells
# H3 = H3 binding assay; parameters: species or system rat; conditions: 1.0E−05 M
# Progesterone(h) (PR) = Progesterone(h) (PR) binding assay; parameters: species or system human; conditions: 1.0E−05 M
# D2S(h) = target: T5, D2S(h) (Homo sapiens, UniProt P14416); assay: biochemical; type: binding; conditions: 1.0E−05 M; read-out: % Inhibition of Control Specific Binding
# T5 construct: expressed in transfected cells; host or cells: CHO cells
# T5 sequence (P14416 1-414 isoform P14416-2): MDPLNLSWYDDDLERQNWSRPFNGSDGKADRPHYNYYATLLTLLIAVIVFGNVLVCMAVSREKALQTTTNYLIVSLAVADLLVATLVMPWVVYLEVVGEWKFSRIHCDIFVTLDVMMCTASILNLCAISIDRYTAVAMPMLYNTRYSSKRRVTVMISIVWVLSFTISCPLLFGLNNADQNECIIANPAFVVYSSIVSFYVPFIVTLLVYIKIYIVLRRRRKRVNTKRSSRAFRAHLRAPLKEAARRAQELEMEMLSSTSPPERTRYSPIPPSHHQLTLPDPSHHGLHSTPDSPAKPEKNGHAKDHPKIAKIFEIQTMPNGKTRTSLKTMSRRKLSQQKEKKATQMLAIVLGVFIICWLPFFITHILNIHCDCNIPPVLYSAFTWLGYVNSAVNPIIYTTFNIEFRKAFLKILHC
# [1] = target: T6, Phenylethanolamine-N-methyl transferase (Bos taurus, UniProt P10938); assay: Phenylethanolamine-N-methyl transferase enzyme assay; type: biochemical, bovine; conditions: 1.0E−05 M
# T6 construct: bovine adrenal; from tissue; host or cells: bovine adrenal medulla
# NE transporter(h) = target: T7, NE transporter(h) (Homo sapiens, UniProt P23975); assay: NE transporter(h) binding assay; conditions: read-out: % Inhibition of Control Specific Binding
# T7 construct: expressed in transfected cells; host or cells: MDCK cells
# T7 sequence (P23975 whole entry): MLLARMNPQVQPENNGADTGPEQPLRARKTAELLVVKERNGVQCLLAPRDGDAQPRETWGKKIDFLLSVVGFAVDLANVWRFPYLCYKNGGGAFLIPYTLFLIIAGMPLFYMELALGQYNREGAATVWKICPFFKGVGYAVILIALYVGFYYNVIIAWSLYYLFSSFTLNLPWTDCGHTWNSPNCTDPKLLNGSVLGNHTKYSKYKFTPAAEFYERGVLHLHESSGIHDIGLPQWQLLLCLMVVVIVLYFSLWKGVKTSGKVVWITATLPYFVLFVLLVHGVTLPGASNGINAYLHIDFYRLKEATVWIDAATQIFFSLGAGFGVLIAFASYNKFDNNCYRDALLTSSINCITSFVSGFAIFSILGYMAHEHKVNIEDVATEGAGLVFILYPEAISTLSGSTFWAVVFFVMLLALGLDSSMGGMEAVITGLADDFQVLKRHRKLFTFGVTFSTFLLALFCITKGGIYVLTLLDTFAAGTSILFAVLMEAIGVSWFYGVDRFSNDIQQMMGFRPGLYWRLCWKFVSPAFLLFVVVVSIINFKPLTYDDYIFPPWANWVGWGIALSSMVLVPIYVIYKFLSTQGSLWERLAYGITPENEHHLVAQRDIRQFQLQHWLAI
# Cl-channel = Cl-channel binding assay; parameters: species or system rat; conditions: 1.0E−05 M
# AMPA = AMPA binding assay; parameters: species or system rat; conditions: 1.0E−05 M
# V1a(h) = target: T8, V1a(h) (Homo sapiens, UniProt P37288); assay: V1a(h) binding assay; conditions: 1.0E−05 M; read-out: % Inhibition of Control Specific Binding
# T8 construct: expressed in transfected cells; host or cells: CHO cells
# GABA transporter = GABA transporter (Rattus norvegicus, UniProt P23978); assay: GABA transporter binding assay; conditions: 1.0E−05 M; read-out: % Inhibition of Control Specific Binding
# B1(h) = target: T9, B1(h) (Homo sapiens, UniProt P46663); assay: B1(h) binding assay; conditions: 1.0E−05 M; read-out: % Inhibition of Control Specific Binding
# T9 construct: expressed in transfected cells; host or cells: CHO cells
# T9 sequence (P46663 whole entry): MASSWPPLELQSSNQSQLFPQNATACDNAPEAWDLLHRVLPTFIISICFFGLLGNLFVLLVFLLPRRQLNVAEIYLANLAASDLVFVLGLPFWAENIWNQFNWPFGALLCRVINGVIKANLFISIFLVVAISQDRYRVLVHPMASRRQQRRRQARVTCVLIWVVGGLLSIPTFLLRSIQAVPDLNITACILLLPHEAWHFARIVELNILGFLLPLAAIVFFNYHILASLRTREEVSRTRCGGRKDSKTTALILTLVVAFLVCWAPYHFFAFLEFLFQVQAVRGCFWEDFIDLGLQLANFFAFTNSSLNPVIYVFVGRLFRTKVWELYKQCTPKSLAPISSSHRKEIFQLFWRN
# Tyrosine hydroxylase = target: T10, Tyrosine hydroxylase (Rattus norvegicus, UniProt P04177); assay: Tyrosine hydroxylase enzyme assay; type: biochemical; conditions: 1.0E−05 M
# T10 construct: rat striatum; from tissue; host or cells: rat striatum
# CRF1 = target: T11, CRF1 (Rattus norvegicus, UniProt P35353); assay: CRF1 binding assay; conditions: read-out: % Inhibition of Control Specific Binding
# T11 construct: from tissue; host or cells: rat pituitary gland
# T11 sequence (P35353 24-415): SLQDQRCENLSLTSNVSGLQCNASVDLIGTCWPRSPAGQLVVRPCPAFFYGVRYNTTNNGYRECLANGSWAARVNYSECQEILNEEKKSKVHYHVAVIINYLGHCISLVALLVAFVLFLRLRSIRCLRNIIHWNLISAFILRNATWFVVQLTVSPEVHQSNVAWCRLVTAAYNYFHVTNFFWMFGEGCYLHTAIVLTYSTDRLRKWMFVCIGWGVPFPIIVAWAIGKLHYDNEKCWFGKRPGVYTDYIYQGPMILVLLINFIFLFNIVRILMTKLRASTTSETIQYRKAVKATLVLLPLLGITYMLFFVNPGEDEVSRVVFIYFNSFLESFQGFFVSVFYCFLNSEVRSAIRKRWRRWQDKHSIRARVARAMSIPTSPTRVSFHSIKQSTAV
# Protein kinase C = Protein kinase C enzyme assay; type: biochemical, rat; conditions: 1.0E−05 M
# [2] = target: Ca^2+ channel (L, diltiazem site) (benzothiazepines) (Rattus norvegicus, UniProt P22002); assay: Ca^2+ channel (L, diltiazem site) binding assay; conditions: read-out: % Inhibition of Control Specific Binding
# LTD4(h) = target: T12, LTD4(h) (Homo sapiens, UniProt Q9Y271); assay: LTD4(h) binding assay; conditions: read-out: % Inhibition of Control Specific Binding
# T12 construct: LTD4(h); U-937 cells; LTD4; Frey et al. (1993); endogenous in cells; host or cells: U-937 cells
# MAO-B(h) = target: T13, MAO-B(h) (Homo sapiens, UniProt P27338); type: biochemical; conditions: 1.0E−05 M
# T13 construct: human platelets; from tissue; host or cells: human platelets
# MC4(h) = target: T14, MC4(h) (Homo sapiens, UniProt P32245); assay: MC4(h) binding assay; conditions: 1.0E−05 M; read-out: % Inhibition of Control Specific Binding
# T14 construct: expressed in transfected cells; host or cells: HEK-293 cells
# [3] = test system: Catechol-O-methyl transferase; assay: Catechol-O-methyl transferase enzyme assay; type: biochemical, porcine; conditions: 1.0E−05 M
# [4] = target: Ca^2+ channel (L, DHP site) (Rattus norvegicus, UniProt P22002); assay: Ca^2+ channel (L, DHP site) binding assay; conditions: read-out: % Inhibition of Control Specific Binding
# [5] = target: N (neuronal) (α-BGTX-insensitive) (Rattus norvegicus, UniProt P09483+P12390); assay: N (neuronal) (α-BGTX-insensitive) binding assay; conditions: 1.0E−05 M; read-out: % Inhibition of Control Specific Binding
# N (neuronal) (α-BGTX-insensitive), sequence (P09483 31-630): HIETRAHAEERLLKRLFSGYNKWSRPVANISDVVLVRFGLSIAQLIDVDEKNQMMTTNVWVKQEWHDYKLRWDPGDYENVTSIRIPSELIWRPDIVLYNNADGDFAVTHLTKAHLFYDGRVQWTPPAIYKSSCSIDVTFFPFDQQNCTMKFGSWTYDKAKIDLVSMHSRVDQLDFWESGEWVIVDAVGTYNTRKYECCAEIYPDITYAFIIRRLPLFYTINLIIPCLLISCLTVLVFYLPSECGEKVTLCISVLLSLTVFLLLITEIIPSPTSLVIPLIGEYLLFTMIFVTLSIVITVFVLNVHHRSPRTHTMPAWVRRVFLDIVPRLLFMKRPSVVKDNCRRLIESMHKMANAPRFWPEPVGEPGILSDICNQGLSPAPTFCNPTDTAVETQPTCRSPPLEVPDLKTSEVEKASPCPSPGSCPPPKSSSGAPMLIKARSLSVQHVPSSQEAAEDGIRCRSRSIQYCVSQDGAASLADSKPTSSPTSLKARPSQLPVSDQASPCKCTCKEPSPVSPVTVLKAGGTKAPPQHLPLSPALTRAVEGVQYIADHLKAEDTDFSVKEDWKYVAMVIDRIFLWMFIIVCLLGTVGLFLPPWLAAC
# N (neuronal) (α-BGTX-insensitive), sequence (P12390 25-500): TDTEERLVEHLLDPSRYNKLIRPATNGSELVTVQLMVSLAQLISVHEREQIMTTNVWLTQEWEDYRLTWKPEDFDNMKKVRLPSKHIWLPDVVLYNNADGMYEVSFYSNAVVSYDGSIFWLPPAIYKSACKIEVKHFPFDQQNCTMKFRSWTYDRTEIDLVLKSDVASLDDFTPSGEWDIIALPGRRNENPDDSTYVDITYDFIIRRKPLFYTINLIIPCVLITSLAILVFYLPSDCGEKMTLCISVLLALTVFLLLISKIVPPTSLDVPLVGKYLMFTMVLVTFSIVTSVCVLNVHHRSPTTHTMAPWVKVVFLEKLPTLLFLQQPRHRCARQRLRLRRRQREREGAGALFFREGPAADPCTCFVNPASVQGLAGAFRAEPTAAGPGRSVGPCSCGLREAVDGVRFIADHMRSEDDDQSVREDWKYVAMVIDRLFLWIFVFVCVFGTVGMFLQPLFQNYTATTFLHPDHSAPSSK
# [6] = test system: colitis provoked by trinitrobenzene sulphonic acid (TNBS); assay: Rat model of colitis provoked by TNBS, 3 days, treatment from Day −1 (CCI-7308); type: in vivo; conditions: vs CMC group
# Description: In the study, colonic macroscopic injury has been assessed, as has colonic weight as a reflection of colonic oedema, along with determination of MPO activity (Bradley et al, 1982) as an index of white cell infiltration for the evaluation of tissue injury. The methods and protocol used were substantially similar to those in Example 39, with some differences described below. TNBS Challenge—Male Wistar rats (270-330 g) were randomised into groups of 10-11 before commencement of the study. The following primary parameters were measured in the study: In addition, the weight of the colonic segment was assessed as an indirect and non-specific marker of oedema. The body weight of the animals was also determined and expressed as % change from the day of challenge. Treatments. All challenged groups were dosed orally twice daily from Day −1. The groups for study were: Colon homogenates for cytokine measurements. […] Tissue homogenates were lysed for 30 min. on ice, and then centrifuged (10 min., 14, 000×g). The aliquots of the supernatant were stored at −20° C. until use (Ten Hove et al., 2001). Tumour Necrosis Factor-a Activity. The TNF-α levels were determined with quantitative TNF-α solid-phase Enzyme Linked ImmunoSorbent Assay (ELISA), which is based on the sandwich principle (HyCult biotechnology b. V;. Cat number: […] At the end of the ELISA assay, the samples were measured spectrophotometrically (Benchmark Microplate reader, Bio-Rad Lab; λ=450 nm). The samples were diluted 2 or 4 times with the sample buffer included in the kit. The TNF-α values were expressed as pg/mg protein. This commercially available kit (Hycult Biotechnology b.v. Uden, The Netherlands. Catalogue number: […]
# [7] = 50 mg/kg/day p.o. in divided doses
# T1 sequence (P30518 whole entry): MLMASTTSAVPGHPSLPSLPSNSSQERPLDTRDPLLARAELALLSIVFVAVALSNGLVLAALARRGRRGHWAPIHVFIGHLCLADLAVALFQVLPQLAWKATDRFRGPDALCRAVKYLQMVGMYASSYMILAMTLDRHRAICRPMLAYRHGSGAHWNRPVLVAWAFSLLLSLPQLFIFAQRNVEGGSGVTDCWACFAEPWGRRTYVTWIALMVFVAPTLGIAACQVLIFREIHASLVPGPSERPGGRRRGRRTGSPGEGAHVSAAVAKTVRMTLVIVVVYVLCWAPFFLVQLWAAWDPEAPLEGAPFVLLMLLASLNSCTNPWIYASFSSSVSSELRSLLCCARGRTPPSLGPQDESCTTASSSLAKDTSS
structure (smiles),measurement,setting,value
"N#Cc1ccc2c(ccn2CCCCCB(O)O)c1 [Example 20, 5-(5-cyano-1H-indol-1-yl)pentylboronic acid]",inhibition at 10 µM,V2(h),5%
same,inhibition at 10 µM,Androgen(h) (AR),40%
same,inhibition at 10 µM,D4.4(h),1%
same,inhibition at 10 µM,H2(h),15%
same,% Inhibition of Control Specific Binding,Y (non-selective),14%
same,inhibition at 10 µM,AT1(h),-3%
same,% Inhibition of Control Specific Binding,H3,0%
same,% Inhibition of Control Specific Binding,Progesterone(h) (PR),79%
same,inhibition at 10 µM,D2S(h),23%
same,% Inhibition of Control Values,[1],1%
same,inhibition at 10 µM,NE transporter(h),15%
same,% Inhibition of Control Specific Binding,Cl-channel,26%
same,% Inhibition of Control Specific Binding,AMPA,−3%
same,inhibition at 10 µM,V1a(h),24%
same,inhibition at 10 µM,GABA transporter,-13%
same,inhibition at 10 µM,B1(h),-5%
same,% Inhibition of Control Values,Tyrosine hydroxylase,4%
same,inhibition at 10 µM,CRF1,-23%
same,% Inhibition of Control Values,Protein kinase C,0%
same,inhibition at 10 µM,[2],-1%
same,inhibition at 10 µM,LTD4(h),12%
same,% Inhibition of Control Values,MAO-B(h),−8%
same,inhibition at 10 µM,MC4(h),2%
same,% Inhibition of Control Values,[3],−5%
same,inhibition at 10 µM,[4],-10%
same,inhibition at 10 µM,[5],12%
"O=C(O)c1cc(/N=N/c2ccc(S(=O)(=O)Nc3ccccn3)cc2)ccc1O [sulfasalazine, reference compound]",attenuation of TNBS-induced fall in body weight (% change in body weight at Day 0),[6]; 50 mg/kg/day p.o. in divided doses b.i.d.,"reached statistical significance at Day 1, 2 and 3"
same,reduction in area of macroscopic colonic injury,"[6]; 50 mg/kg/day p.o. in divided doses, 72 h after TNBS",significantly (P<0.001) reduced the extent of macroscopic injury
same,reduction in colon weight,[6]; [7],significant (P<0.05) reduction in colon weight
same,reduction in colonic MPO activity,[6]; [7],significantly reduced the elevated colonic levels of MPO
same,reduction in colonic TNF-α levels,[6]; [7],significantly reduced the elevated colonic levels of TNF-α
